Entries after “also recorded” stand apart in the source; their conditions may differ.
Experiments:
[1] = Area under the light absorbance spectrum curve of a 0.001 w/v % aqueous solution (UV meter, trapezoidal formula); assay type: physicochemical; settings: 0.001 w/v % aqueous solution of the added compound
Experimental: FIG. 1 is a graph showing the relationship between the absorbance wavelength and the absorbance of various compounds. The measurement method is as follows. A 0.001 w/v % aqueous solution of a drug and various stabilizers was prepared, and the absorbances at each absorbance wavelength in a range of 200 nm to 600 nm were measured. […] Condition: scan speed: medium speed, sampling pitch: 1.0, length of light path: 10 mm, width of a slit: 2.0 nm.
FIG. 2 is a graph showing a method for calculating the area under the spectrum curve of various compounds. The area under the spectrum curve was calculated by a trapezoidal formula. That is, for the spectrum of each of the compounds, the trapezoidal area was calculated at every sampling pitch (1.0 nm), and a desired area was measured from the total value of the trapezoidal areas in the wavelength range.

[2] = Stability under irradiation with a white fluorescent lamp of 1000 Lux, assay value by liquid chromatography; settings: compound added to ramosetron hydrochloride preparation
Experimental: The quantitative determination was carried out by liquid chromatography.

[3] = Stability under sealing of an HDPE plastic bottle at 40° C. and 75% RH, assay value by liquid chromatography; assay type: physicochemical; settings: compound added to ramosetron or its salt

Compound	area under the spectrum curve at the wavelength range of 220 nm to 240 nm [1]	area under the spectrum curve at the wavelength range of 280 nm to 300 nm [1]	stabilizing effect of the added compound on ramosetron hydrochloride against light (in words) [2]	stabilizing effect of the added compound on ramosetron under a high-temperature and high-humidity condition (in words) [3]
O=C([O-])c1ccccc1-c1c2cc(I)c(=O)c(I)c-2oc2c(I)c([O-])c(I)cc12.[Na+].[Na+] [Food Red No. 3, reference compound]	4.2	1.8	–	–
αG hesperidin	6.0	5.0	a remarkable stabilizing effect of ramosetron hydrochloride against the irradiation with light is found; also recorded: exhibited a remarkable stabilizing effect against light	a remarkable stabilizing effect under a high-temperature and high-humidity condition
OC[C@@H](O)[C@@H](O)[C@H](O)[C@H](O)CO [mannitol, reference compound]	0.1	0.1	did not exhibit a remarkable stabilizing effect against light	–
methyl hesperidin	5.4	3.7	a remarkable stabilizing effect of ramosetron hydrochloride against the irradiation with light is found; also recorded: exhibited a remarkable stabilizing effect against light	a remarkable stabilizing effect under a high-temperature and high-humidity condition
O=S(=O)([O-])c1cc(S(=O)(=O)[O-])c2c(N=Nc3ccc(S(=O)(=O)[O-])c4ccccc34)c(O)ccc2c1.[Na+].[Na+].[Na+] [Food Red No. 102]	10.0	3.1	–	–
Cc1cc(S(=O)(=O)[O-])c2c(C)ccc(C(C)C)cc1-2.[Na+] [sodium azulene sulfonate]	8.4	19.9	a remarkable stabilizing effect of ramosetron hydrochloride against the irradiation with light is found; also recorded: exhibited a remarkable stabilizing effect against light	–

Source: patent publication US20100062063A1, “LIGHT-STABLE SOLID PHARMACEUTICAL COMPOSITION OF RAMOSETRON” (ASTELLAS PHARMA INC., priority 2006, published 2010)
